# Experiments:
# Design in all cases: scale not given: the % may be the effect or the level left
# [1] = target: Dual specificity tyrosine-phosphorylation-regulated kinase 1B (Homo sapiens) (UniProt Q9Y463); test: Inhibition of human DYRK1B assessed as enzyme activity at 1 uM using RRRFRPASPLRGPPK as substrate preincubated for 20 mins followed by [gamma-33P]-ATP addition and measured after 120 mins by radiometric Hot-SpotSM Kinase assay relative to control
# [2] = target: Serine/threonine-protein kinase PLK2 (Homo sapiens) (UniProt Q9NYY3); test: Inhibition of human PLK2 assessed as enzyme activity at 1 uM using casein as substrate preincubated for 20 mins followed by [gamma-33P]-ATP addition and measured after 120 mins by radiometric Hot-SpotSM Kinase assay relative to control
# Chain of Serine/threonine-protein kinase PLK2 (Homo sapiens) (Q9NYY3 whole entry, looked up): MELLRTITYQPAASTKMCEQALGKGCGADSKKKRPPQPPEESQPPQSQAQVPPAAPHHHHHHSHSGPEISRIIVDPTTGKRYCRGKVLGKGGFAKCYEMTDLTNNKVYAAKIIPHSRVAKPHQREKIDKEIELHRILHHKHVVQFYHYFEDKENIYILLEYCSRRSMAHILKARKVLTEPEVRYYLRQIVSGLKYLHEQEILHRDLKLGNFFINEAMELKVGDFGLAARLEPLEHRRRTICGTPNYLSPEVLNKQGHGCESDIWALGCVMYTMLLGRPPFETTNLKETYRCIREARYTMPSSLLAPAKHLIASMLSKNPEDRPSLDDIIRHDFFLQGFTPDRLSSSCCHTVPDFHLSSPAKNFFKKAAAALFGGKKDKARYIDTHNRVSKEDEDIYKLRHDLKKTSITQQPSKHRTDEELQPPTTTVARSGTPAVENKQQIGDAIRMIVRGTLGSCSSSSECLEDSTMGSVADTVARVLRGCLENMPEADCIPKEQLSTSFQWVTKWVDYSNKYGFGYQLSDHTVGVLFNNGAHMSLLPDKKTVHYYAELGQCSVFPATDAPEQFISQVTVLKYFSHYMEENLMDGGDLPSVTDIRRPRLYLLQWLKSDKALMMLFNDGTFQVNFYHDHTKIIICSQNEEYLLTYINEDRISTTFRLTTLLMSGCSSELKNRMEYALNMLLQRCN
# [3] = target: T1, SNF-related serine/threonine-protein kinase (Homo sapiens) (UniProt Q9NRH2); test: Inhibition of human SNRK assessed as enzyme activity at 1 uM using myelin basic protein as substrate preincubated for 20 mins followed by [gamma-33P]-ATP addition and measured after 120 mins by radiometric Hot-SpotSM Kinase assay relative to control
# T1 sequence (whole entry): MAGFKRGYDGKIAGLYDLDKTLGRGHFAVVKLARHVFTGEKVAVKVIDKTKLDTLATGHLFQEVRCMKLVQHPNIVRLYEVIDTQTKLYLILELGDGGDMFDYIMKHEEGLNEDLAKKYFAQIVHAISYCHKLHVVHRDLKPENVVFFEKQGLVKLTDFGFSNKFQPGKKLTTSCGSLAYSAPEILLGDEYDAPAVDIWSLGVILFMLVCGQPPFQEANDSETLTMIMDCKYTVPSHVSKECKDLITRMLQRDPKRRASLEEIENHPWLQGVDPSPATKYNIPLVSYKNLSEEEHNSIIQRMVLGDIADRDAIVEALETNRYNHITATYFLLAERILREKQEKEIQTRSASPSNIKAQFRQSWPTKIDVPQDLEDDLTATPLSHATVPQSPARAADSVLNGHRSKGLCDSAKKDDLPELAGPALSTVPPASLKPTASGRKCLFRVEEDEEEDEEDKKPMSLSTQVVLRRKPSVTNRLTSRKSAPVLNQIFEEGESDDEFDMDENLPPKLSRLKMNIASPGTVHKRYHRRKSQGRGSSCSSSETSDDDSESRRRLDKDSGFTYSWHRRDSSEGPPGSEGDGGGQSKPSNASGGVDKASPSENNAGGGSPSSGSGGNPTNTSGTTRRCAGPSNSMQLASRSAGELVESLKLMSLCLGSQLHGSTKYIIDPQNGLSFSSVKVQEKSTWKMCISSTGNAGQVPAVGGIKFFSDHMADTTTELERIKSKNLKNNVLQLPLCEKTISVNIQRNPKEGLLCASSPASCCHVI
# [4] = target: T2, Non-receptor tyrosine-protein kinase TNK1 (Homo sapiens) (UniProt Q13470); test: Inhibition of human TNK1 assessed as enzyme activity at 1 uM using poly[Glu:Tyr] (4:1) as substrate preincubated for 20 mins followed by [gamma-33P]-ATP addition and measured after 120 mins by radiometric Hot-SpotSM Kinase assay relative to control
# T2 sequence (whole entry): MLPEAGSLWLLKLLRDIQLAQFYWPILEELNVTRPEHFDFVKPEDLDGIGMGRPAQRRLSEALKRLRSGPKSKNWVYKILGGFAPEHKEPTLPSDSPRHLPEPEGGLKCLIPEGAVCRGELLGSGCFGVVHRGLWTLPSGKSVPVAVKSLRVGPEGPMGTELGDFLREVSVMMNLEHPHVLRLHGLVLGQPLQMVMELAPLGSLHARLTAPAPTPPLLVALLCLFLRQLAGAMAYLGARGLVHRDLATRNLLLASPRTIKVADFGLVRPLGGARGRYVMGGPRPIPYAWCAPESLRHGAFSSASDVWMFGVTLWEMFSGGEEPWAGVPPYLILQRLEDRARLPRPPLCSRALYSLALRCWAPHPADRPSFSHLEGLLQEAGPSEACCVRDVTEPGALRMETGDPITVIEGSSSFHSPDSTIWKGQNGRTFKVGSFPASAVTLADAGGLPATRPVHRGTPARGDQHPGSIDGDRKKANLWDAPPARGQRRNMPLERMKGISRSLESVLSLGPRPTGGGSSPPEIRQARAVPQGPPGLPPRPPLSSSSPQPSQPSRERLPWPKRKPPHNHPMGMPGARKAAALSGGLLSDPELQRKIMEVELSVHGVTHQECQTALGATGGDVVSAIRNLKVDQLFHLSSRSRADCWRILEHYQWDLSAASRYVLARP
# [5] = target: Mitogen-activated protein kinase kinase kinase kinase 1 (Homo sapiens) (UniProt Q92918); test: Inhibition of human HPK1 assessed as enzyme activity at 1 uM using myelin basic protein as substrate preincubated for 20 mins followed by [gamma-33P]-ATP addition and measured after 120 mins by radiometric Hot-SpotSM Kinase assay relative to control
# Chain of Mitogen-activated protein kinase kinase kinase kinase 1 (Homo sapiens) (Q92918 whole entry, looked up): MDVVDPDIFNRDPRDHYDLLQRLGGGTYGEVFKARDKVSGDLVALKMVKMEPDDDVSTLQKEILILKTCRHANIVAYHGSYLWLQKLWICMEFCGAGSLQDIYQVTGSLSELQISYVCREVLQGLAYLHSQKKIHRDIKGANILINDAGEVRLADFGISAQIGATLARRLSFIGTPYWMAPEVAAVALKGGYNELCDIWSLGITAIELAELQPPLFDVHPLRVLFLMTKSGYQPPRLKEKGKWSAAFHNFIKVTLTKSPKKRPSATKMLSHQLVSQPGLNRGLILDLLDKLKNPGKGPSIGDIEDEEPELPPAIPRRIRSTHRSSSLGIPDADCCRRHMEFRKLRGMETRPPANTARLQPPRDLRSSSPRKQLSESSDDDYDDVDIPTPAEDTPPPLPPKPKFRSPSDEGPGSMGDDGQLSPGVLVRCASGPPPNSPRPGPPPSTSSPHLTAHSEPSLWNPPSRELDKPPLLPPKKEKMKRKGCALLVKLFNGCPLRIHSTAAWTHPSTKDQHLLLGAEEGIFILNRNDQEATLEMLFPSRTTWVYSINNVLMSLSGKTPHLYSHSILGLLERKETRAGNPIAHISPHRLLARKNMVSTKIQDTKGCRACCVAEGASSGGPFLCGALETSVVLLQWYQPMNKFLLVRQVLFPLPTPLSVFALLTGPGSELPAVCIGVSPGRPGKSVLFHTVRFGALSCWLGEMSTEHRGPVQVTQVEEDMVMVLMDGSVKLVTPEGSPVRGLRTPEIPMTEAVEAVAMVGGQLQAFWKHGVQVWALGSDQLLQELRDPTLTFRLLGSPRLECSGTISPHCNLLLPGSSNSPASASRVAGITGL
# [6] = target: Tyrosine-protein kinase SYK (Homo sapiens) (UniProt P43405); test: Inhibition of human SYK assessed as enzyme activity at 1 uM using poly[Glu:Tyr] (4:1) as substrate preincubated for 20 mins followed by [gamma-33P]-ATP addition and measured after 120 mins by radiometric Hot-SpotSM Kinase assay relative to control
# [7] = target: Serine/threonine-protein kinase N3 (Homo sapiens) (UniProt Q6P5Z2); test: Inhibition of human PKN3 assessed as enzyme activity at 1 uM using KKLNRTLSVA as substrate preincubated for 20 mins followed by [gamma-33P]-ATP addition and measured after 120 mins by radiometric Hot-SpotSM Kinase assay relative to control
# Chain of Serine/threonine-protein kinase N3 (Homo sapiens) (Q6P5Z2 whole entry, looked up): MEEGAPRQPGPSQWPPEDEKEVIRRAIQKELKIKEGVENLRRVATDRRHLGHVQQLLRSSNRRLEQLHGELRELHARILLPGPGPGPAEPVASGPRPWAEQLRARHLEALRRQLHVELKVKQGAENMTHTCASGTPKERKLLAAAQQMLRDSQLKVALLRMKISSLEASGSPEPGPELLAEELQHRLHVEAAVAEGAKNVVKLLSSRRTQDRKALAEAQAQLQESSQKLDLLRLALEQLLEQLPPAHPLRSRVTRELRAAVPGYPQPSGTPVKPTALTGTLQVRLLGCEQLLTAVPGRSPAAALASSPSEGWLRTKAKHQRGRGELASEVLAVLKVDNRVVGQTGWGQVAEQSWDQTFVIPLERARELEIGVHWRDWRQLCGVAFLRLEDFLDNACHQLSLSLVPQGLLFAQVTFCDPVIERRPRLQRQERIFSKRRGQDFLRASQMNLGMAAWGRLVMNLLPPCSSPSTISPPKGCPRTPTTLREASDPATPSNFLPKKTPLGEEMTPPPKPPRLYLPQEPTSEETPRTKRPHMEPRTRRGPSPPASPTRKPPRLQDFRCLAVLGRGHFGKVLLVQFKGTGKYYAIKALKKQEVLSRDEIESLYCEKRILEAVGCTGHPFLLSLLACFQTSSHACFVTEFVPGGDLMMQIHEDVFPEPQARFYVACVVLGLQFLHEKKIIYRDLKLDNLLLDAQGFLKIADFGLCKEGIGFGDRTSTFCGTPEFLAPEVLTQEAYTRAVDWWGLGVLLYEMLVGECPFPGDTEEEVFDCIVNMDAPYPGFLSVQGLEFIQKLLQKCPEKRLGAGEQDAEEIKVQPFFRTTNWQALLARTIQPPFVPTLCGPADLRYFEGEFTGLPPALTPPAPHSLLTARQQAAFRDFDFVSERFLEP
# [8] = target: Wee1-like protein kinase (Homo sapiens) (UniProt P30291); test: Inhibition of human WEE1 assessed as enzyme activity at 1 uM using CDK1 (D146N)/cyclin B1 as substrate preincubated for 20 mins followed by [gamma-33P]-ATP addition and measured after 120 mins by radiometric Hot-SpotSM Kinase assay relative to control
# Chain of Wee1-like protein kinase (Homo sapiens) (P30291 whole entry, looked up): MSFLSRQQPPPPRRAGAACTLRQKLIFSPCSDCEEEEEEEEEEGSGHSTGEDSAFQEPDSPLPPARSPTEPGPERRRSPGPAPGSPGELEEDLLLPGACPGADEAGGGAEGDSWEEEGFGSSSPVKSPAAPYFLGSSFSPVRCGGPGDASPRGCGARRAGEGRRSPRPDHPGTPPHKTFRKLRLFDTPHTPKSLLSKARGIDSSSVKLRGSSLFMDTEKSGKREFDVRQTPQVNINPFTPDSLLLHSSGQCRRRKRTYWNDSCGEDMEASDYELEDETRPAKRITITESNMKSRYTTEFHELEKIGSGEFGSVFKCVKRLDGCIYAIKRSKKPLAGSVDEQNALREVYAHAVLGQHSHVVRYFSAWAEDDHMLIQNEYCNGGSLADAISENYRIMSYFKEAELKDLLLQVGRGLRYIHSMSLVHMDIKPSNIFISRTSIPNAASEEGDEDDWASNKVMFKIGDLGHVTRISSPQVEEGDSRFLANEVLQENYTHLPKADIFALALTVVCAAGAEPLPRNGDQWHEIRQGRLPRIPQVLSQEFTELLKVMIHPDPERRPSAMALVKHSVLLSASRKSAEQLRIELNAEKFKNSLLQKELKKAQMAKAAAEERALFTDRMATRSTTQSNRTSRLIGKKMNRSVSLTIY
# [9] = target: T3, Dual specificity mitogen-activated protein kinase kinase 5 (Homo sapiens) (UniProt Q13163); test: Inhibition of human MEK5 assessed as enzyme activity at 1 uM using ERK5 (K84R) as substrate preincubated for 20 mins followed by [gamma-33P]-ATP addition and measured after 120 mins by radiometric Hot-SpotSM Kinase assay relative to control
# T3 sequence (whole entry): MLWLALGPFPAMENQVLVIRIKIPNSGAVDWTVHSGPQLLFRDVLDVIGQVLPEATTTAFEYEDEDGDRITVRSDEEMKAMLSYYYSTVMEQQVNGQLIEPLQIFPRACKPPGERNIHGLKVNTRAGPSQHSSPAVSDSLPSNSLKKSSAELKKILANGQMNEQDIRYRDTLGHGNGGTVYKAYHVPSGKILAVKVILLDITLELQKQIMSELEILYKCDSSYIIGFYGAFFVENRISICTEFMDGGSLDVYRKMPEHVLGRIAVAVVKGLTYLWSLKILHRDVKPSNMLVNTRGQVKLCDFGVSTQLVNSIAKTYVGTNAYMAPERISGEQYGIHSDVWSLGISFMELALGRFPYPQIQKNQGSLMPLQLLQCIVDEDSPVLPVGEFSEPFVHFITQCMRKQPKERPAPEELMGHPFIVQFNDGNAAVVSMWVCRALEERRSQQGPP
# Chain of Dual specificity tyrosine-phosphorylation-regulated kinase 1B (Homo sapiens) (Q9Y463 whole entry, looked up): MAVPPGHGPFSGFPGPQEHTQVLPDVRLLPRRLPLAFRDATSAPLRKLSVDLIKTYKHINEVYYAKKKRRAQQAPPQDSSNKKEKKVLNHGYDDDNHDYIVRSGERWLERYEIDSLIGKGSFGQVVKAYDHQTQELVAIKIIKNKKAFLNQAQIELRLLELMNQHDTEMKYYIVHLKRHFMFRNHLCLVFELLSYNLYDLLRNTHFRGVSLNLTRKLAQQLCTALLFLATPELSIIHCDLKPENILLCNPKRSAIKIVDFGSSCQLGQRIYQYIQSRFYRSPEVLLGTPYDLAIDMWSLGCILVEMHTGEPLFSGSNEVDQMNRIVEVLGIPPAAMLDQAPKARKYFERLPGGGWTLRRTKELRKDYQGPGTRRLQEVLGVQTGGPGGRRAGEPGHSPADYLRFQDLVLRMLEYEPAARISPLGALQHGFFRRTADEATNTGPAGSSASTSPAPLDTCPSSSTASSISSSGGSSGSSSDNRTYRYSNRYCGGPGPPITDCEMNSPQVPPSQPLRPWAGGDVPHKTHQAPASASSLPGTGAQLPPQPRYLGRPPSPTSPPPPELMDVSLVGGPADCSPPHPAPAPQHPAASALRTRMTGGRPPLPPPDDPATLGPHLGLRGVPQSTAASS
Compound,Activity [1],Activity [2],Activity [3],Activity [4],Activity [5],Activity [6],Activity [7],Activity [8],Activity [9]
CC[C@H](Nc1ncnc2[nH]cnc12)c1nc2cccc(F)c2c(=O)n1-c1ccccc1,99.2%,102%,102%,86.3%,98%,103%,97.8%,96.7%,104%
C[C@H](Nc1ncnc2nc[nH]c12)c1cc2cccc(Cl)c2c(=O)n1-c1ccccc1,99.8%,98.6%,96.6%,87.5%,104%,100%,101%,87.3%,105%
CC(C)Oc1ccc(-c2nn([C@@H](C)c3oc4ccc(F)cc4c(=O)c3-c3cccc(F)c3)c3ncnc(N)c23)cc1F [UMBRALISIB],96.2%,99.8%,102%,88.9%,105%,102%,93.5%,106%,102%
